Assay results published in US8168800B2, “Aβ-binding small molecules” (The Regents of the University of California, priority 2007, dated 2012).

These compounds were tested on AβO cytotoxicity (assay: Rapid MTT formazan exocytosis (MTT-FE) assay). Details: AβO:Compound 1:0 to 1:4, 1 hour, TS-/TI-MTT.
Format: cell-based
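For EC50 in this document: intraneuronal AβO toxicity triggered by withdrawing tetracycline, which suppresses the C99 transgene, MTT formazan viability read-out, with tetracycline-maintained cultures taken as 100%.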
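For protection of MC65 cells from death in this document: intraneuronal AβO toxicity triggered by withdrawing tetracycline, which suppresses the C99 transgene, MTT formazan viability read-out, with tetracycline-maintained cultures taken as 100%.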
Method: In the rapid MTT formazan exocytosis (MTT-FE) assay, AβO was combined with LRL 03, LRL 15, Compound A or Congo Red (2.5 μM solution) at a ratio of 1:0, 1:1, 1:2 or 1:4 (AβO:Compound) and incubated for 1 hour, followed by measurement of the degree of formazan exocytosis. […] In particular, cellular MTT formazan was fractionated into the Triton soluble (TS) and insoluble (TI) MTT and quantified and shown in FIG. 7B.

Structure (SMILES) | neutralization of AβO cytotoxicity
Nc1c(/N=N/c2ccc(-c3ccc(/N=N/c4cc(S(=O)(=O)O)c5ccccc5c4N)cc3)cc2)cc(S(=O)(=O)O)c2ccccc12 [Congo Red] | able to neutralize AβO cytotoxicity

Each compound was assayed on SDS-stable AβO in MC65 cells (assay: SDS-PAGE and Western blot (6E10) of MC65 cell homogenates). Details: 1 μM, 24 hour cultures, 6E10 Western blot.
Format: cell-based
Description: See, Maezawa et al. J Neurochem (2006) 98:57-67, which is incorporated herein by reference.

Structure (SMILES) | levels of SDS-stable AβO
NC(=O)c1ccc2c(c1)nc(Nc1ccc(I)cc1)n2CCOc1ccccc1 [LRL 19, 2-(4-iodophenylamino)-1-(2-phenoxyethyl)-1H-benzo[d]imidazole-5-carboxamide, reference compound] | decreased the levels of SDS-stable AβO
NC(=O)[C@H](Cc1ccc(O)c(O)c1)NC(=O)c1ccc2c(c1)nc(Nc1cccc(Br)c1)n2CCOc1ccccc1 [LRL 13, (S)—N-(1-amino-3-(3,4-dihydroxyphenyl)-1-oxopropan-2-yl)-2-(3-bromophenylamino)-1-(2-phenoxyethyl)-1H-benzo[d]imidazole-5-carboxamide, reference compound] | decreased the levels of SDS-stable AβO

Each compound was assayed on MC65 cells (assay: MC65 cell protection (cell viability) assay). Details: not given.

Structure (SMILES) | protection of MC65 cells from death
NC(=O)c1ccc2c(c1)nc(Nc1ccc(I)cc1)n2CCOc1ccccc1 [LRL 19, 2-(4-iodophenylamino)-1-(2-phenoxyethyl)-1H-benzo[d]imidazole-5-carboxamide, reference compound] | protect MC65 cells from death
NC(=O)[C@H](Cc1ccc(O)c(O)c1)NC(=O)c1ccc2c(c1)nc(Nc1cccc(Br)c1)n2CCOc1ccccc1 [LRL 13, (S)—N-(1-amino-3-(3,4-dihydroxyphenyl)-1-oxopropan-2-yl)-2-(3-bromophenylamino)-1-(2-phenoxyethyl)-1H-benzo[d]imidazole-5-carboxamide, reference compound] | protect MC65 cells from death
Cc1c(C(N)=O)c(=O)oc2cc3c(cc12)nc(Nc1ccccc1Br)n3CCOc1ccccc1 [Compound C, 2-(2-Bromo-phenylamino)-8-methyl-6-oxo-3-(2-phenoxy-ethyl)-3,6-dihydro-chromeno[6,7-d]imidazole-7-carboxylic acid amide] | inactive

Same assay, conditions: MC65

Structure (SMILES) | EC50 [nM]
COc1ccc(Nc2nc3cc4c(C)c(C(N)=O)c(=O)oc4cc3n2Cc2ccc(Br)cc2)cc1 [D.24] | < 1000
COc1ccc(Nc2nc3cc4c(C)c(C(N)=O)c(=O)oc4cc3n2Cc2cccc(Br)c2)cc1 [D.20] | < 1000
CCCn1c(Nc2cccc(I)c2)nc2cc3c(C)c(C(N)=O)c(=O)oc3cc21 [D.12] | < 1000
Cc1c(C(N)=O)c(=O)oc2cc3c(cc12)nc(Nc1cccc(Br)c1)n3CCOc1ccccc1 [D.1] | < 1000
Cc1c(C(N)=O)c(=O)oc2cc3c(cc12)nc(Nc1ccc(I)cc1)n3CCOc1ccccc1 [D.2] | < 1000
COc1ccc(Nc2nc3cc4c(C)c(C(N)=O)c(=O)oc4cc3n2Cc2cccc(I)c2)c(OC)c1 [D.19] | < 1000
Cc1c(C(N)=O)c(=O)oc2cc3c(cc12)nc(Nc1ccc(OC(F)(F)F)cc1)n3Cc1cccc(Br)c1 [D.29] | < 1000
Cc1c(C(N)=O)c(=O)oc2cc3c(cc12)nc(Nc1cccc(I)c1)n3CC(F)F [D.14] | 1000 to 10000
Cc1c(C(N)=O)c(=O)oc2cc3c(cc12)nc(Nc1cccc(I)c1)n3CCc1ccc(Br)cc1 [D.8] | < 1000
Cc1c(C(N)=O)c(=O)oc2cc3c(cc12)nc(Nc1ccc(C#N)cc1)n3Cc1ccc(Br)cc1 [D.34] | < 1000
Cc1c(C(N)=O)c(=O)oc2cc3c(cc12)nc(Nc1cccc(I)c1)n3Cc1cccc(I)c1 [D.15] | < 1000
COc1ccc(Nc2nc3cc4c(C)c(C(N)=O)c(=O)oc4cc3n2Cc2cccc(Cl)c2)cc1 [D.22] | < 1000
Cc1c(C(N)=O)c(=O)oc2cc3c(cc12)nc(Nc1cccc(I)c1)n3CCO [D.5] | > 10000
Cc1c(C(N)=O)c(=O)oc2cc3c(cc12)nc(Nc1ccccc1Br)n3CCOc1ccccc1 [D.3] | > 10000
Cc1c(C(N)=O)c(=O)oc2cc3c(cc12)nc(Nc1cccc(I)c1)n3CC1CC1 [D.13] | < 1000
COc1ccc(Nc2nc3cc4c(C)c(C(N)=O)c(=O)oc4cc3n2Cc2ccc(I)cc2)cc1 [D.25] | < 1000
COc1ccc(Nc2nc3cc4c(C)c(C(N)=O)c(=O)oc4cc3n2-c2cccc(Br)c2)cc1 [D.33] | > 10000
COc1ccc(Nc2nc3cc4c(C)c(C(N)=O)c(=O)oc4cc3n2Cc2ccc(Cl)cc2)cc1 [D.23] | < 1000

Structure (SMILES) | EC50 [nM]
C#CCn1c(Nc2cccc(I)c2)nc2cc3c(C)c(C(N)=O)c(=O)oc3cc21 [D.4] | 1000 to 10000
Cc1c(C(N)=O)c(=O)oc2cc3c(cc12)nc(Nc1cccc(I)c1)n3C [D.11] | 1000 to 10000
COCCn1c(Nc2cccc(I)c2)nc2cc3c(C)c(C(N)=O)c(=O)oc3cc21 [D.6] | > 10000
COc1ccc(Nc2nc3cc4c(C)c(C(N)=O)c(=O)oc4cc3n2CCc2cccc(Cl)c2)cc1 [D.27] | < 1000
Cc1c(C(N)=O)c(=O)oc2cc3c(cc12)nc(Nc1ccc(OC(F)(F)F)cc1)n3Cc1cccc(I)c1 [D.30] | < 1000
Cc1c(C(N)=O)c(=O)oc2cc3c(cc12)nc(Nc1ccc(C#N)cc1)n3Cc1ccc(I)cc1 [D.35] | < 1000
COc1cccc(Nc2nc3cc4c(C)c(C(N)=O)c(=O)oc4cc3n2Cc2cccc(I)c2)c1 [D.17] | < 1000
COc1ccc(Nc2nc3cc4c(C)c(C(N)=O)c(=O)oc4cc3n2CCc2ccc(Br)cc2)cc1 [D.26] | < 1000
COc1ccc(CCn2c(Nc3cccc(I)c3)nc3cc4c(C)c(C(N)=O)c(=O)oc4cc32)cc1 [D.7] | < 1000
COc1ccc(Nc2nc3cc4c(C)c(C(N)=O)c(=O)oc4cc3n2CCOc2ccccc2)cc1 [D.10] | < 1000
COc1ccc(Nc2nc3cc4c(C)c(C(N)=O)c(=O)oc4cc3n2Cc2cccc(F)c2)cc1 [D.21] | < 1000
Cc1c(C(N)=O)c(=O)oc2cc3c(cc12)nc(Nc1cccc(I)c1)n3CCOc1ccccc1 [D.9] | < 1000
Cc1c(C(N)=O)c(=O)oc2cc3c(cc12)nc(Nc1ccc(OC(F)(F)F)cc1)n3Cc1ccc(Cl)cc1 [D.31] | < 1000
COc1ccc(Nc2nc3cc4c(C)c(C(N)=O)c(=O)oc4cc3n2Cc2cccc(I)c2)cc1 [D.16] | < 1000
CSc1cccc(Nc2nc3cc4c(C)c(C(N)=O)c(=O)oc4cc3n2Cc2cccc(I)c2)c1 [D.18] | < 1000
Cc1c(C(N)=O)c(=O)oc2cc3c(cc12)nc(Nc1ccc(OC(F)(F)F)cc1)n3Cc1cccc(Cl)c1 [D.28] | < 1000
Cc1c(C(N)=O)c(=O)oc2cc3c(cc12)nc(Nc1ccc(OC(F)(F)F)cc1)n3Cc1ccc(Br)cc1 [D.32] | < 1000

What follows are compounds tested against T1, AβO (Homo sapiens, UniProt P05067) (assay: Electron microscopy (EM) of AβO size). Details: 24 hour incubation at 25° C.
T1 construct: prepared by mixing a 1:10 ratio of biotinylated and unbiotinylated Aβ1-42 peptide
Format: biochemical
Method: To address the possible alternative explanation that the depolymerization effect observed for Compound A in the AFM experiment is due to Compound A altered binding of AβO to the AFM mica, the effect of Compound A and Compound B and Congo Red on AβO size was further analyzed by electron microscopy (EM) (see FIG. 5A and FIG. 5B). […] The representative electron micrographs presented in FIG. 5A show the size of the AβO aggregates after incubation with either Compound A, Compound B or Congo Red. FIG. 5B contains a histogram, which illustrates the size distribution of AβO without treatment or with treatment with Compound A, Compound B or Congo Red. It is apparent from EM images in FIG. 5A and in the histograms shown in FIG. 5B that after 24 hour incubation at 25° C. and in the absence of treatment with Compound A or Congo Red, AβO grew in size.

T1 sequence (P05067 672-713 limits assumed): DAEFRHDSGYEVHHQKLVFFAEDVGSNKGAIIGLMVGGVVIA

Structure (SMILES) | effect on number and size of AβO
Nc1c(/N=N/c2ccc(-c3ccc(/N=N/c4cc(S(=O)(=O)O)c5ccccc5c4N)cc3)cc2)cc(S(=O)(=O)O)c2ccccc12 [Congo Red] | reduction in the number and size of AβO

These compounds were tested on binding of AβO to synapses of cultured mouse hippocampal neurons (assay: Synaptic binding assay). Details: 100 nM AβO: 1 μM compound, neurons 21 days in vitro.
Format: cell-based
Method: The strong binding of AβO to synapses induces aberration in synapse composition, shape, and density, and was proposed as the molecular basis for the loss of connectivity in AD (see, Lacor, et al., J. Neurosci. (2007) 27:796-807). A synaptic binding assay was performed as described by Lacor et al. (2007), which is incorporated herein by reference, with minor modifications to test the effectiveness of a compound of Formula I (e.g., Compound A) to reduce or to prevent the binding of AβO to synapses. AβO prepared from the N-terminal biotinylated Aβ1-42 peptide was incubated either with 10 equivalents compounds (i.e., 100 nM AβO: 1 μM Compound A), or with DMSO (i.e., the solvent for the compounds used only as a negative control) for five minutes, then added to cultured mouse hippocampal neurons that had been cultured 21 days in vitro. After 5 minute incubation, the neurons were washed, fixed, and stained with streptavidin-Alexa594 for bound AβO. […] The density of puncta per unit dendritic area was quantified using the Image J program and the resulting bar graph is presented in the far right panel.

Structure (SMILES) | fluorescent puncta (AβO bound to synapses)
Nc1c(/N=N/c2ccc(-c3ccc(/N=N/c4cc(S(=O)(=O)O)c5ccccc5c4N)cc3)cc2)cc(S(=O)(=O)O)c2ccccc12 [Congo Red] | substantially reduced number of puncta
